Experimental data from patent publication US6846821B2, “Tetrahydrothiopy ranphthalazinone derivatives as PDE4 inhibitors” (Altana Pharma, AG, priority 1999, dated 2005).

Columns and labels:
PDE4 = assay: Inhibition of PDE4 activity (method of Bauer and Schwabe, microtitre plates); type: biochemical; details: measured as −logIC50 (mol/l)
Method: The activity test was carried out according to the method of Bauer and Schwabe, which was adapted to microtitre plates (Naunyn-Schmiederberg's Arch. Pharmacol. 311, 193-198, 1980). In this test, the PDE reaction is carried out in the first step. In a second step, the resultant 5′-nucleotide is cleaved to the uncharged nucleoside by a snake venom 5′-nucleotidase from Crotalus Atrox. In the third step, the necleoside is separated from the remaining charged substrate on ion exchange columns. The columns are eluted directly into minivials using 2 ml of 30 mM ammonium formate (pH 6.0), to which a further 2 ml of scintillation fluid is added for counting.
The inhibitory values determined for the compounds according to the invention follow from the following table A which the numbers of the compounds correspond to the numbers of the examples.

melting point [°C] | SMILES | Inhibition of PDE4 activity, −logIC50 (PDE4) [mol/l]
170 to 171 | COc1ccc(C2=NN(C3CCSCC3)C(=O)[C@H]3CC=CC[C@@H]23)cc1Cl (relative stereo) [compound 4, (cis)-4-(3-Chloro-4-methoxyphenyl)-2-(tetrahydrothiopyran-4-yl)-4a,5,8,8a-tetrahydro-2H-phthalazin-1-one] | –
163 to 164 | COc1ccc(C2=NN(C3CCSCC3)C(=O)[C@H]3CC=CC[C@@H]23)c2c1OC(C)(C)C2 (relative stereo) [compound 1, (cis)-4-(2,3-Dihydro-2,2-dimethyl-7-methoxybenzofuran-4-yl)-2-(tetrahydrothiopyran-4-yl)-4a,5,8,8a-tetrahydro-2H-phthalazin-1-one] | 9.34
– | COc1ccc(C2=NN(C3CCS(=O)(=O)CC3)C(=O)C3CC=CCC23)cc1OC1CCCC1 (stereo not drawn) [compound 10, (cis)-4-(3-Cyclopentyloxy-4-methoxyphenyl)-2-(1,1,-dioxohexahydro-1l^6-thiopyran-4-yl)-4a,5,8,8a-tetrahydro-2H-phthalazin-1-one] | 9.43
– | CCOc1ccc(C2=NN(C3CCS(=O)(=O)CC3)C(=O)C3CC=CCC23)cc1OCC (stereo not drawn) [compound 6, (cis)-4-(3,4-Diethoxyphenyl)-2-(1,1-dioxohexahydro-1l^6-thiopyran-4-yl)-4a,5,8,8a-tetrahydro-2H-phthalazin-1-one] | 8.02
203 to 204 | COc1ccc(C2=NN(C3CCS(=O)(=O)CC3)C(=O)C3CC=CCC23)cc1OC [compound 9, (4aS,8aR)-(cis)-4-(3,4-Dimethoxyphenyl)-2-(1,1-dioxohexahydro-1l^6-thiopyran-4-yl)-4a,5,8,8a-tetrahydro-2H-phthalazin-1-one] | 9.20
197 to 199 | COc1ccc(C2=NN(C3CC[S+]([O-])CC3)C(=O)C3CC=CCC23)cc1Cl (stereo not drawn) [compound 5, (cis)-4-(3-Chloro4-methoxyphenyl)-2-(1-oxo-hexahydro-1l^4-thiopyran-4-yl)-4a,5,8,8a-tetrahydro-2H-phthalazin-1-one] | 8.20
261 to 263 | COc1ccc(C2=NN(C3CCS(=O)(=O)CC3)C(=O)C3CC=CCC23)c2c1OC(C)(C)C2 (stereo not drawn) [compound 7, (cis)-4-(2,3-Dihydro-2,2-dimethyl-7-methoxybenzofuran-4-yl)-2-(1,1-dioxohexahydro-1l^6-thiopyran4-yl)-4a,5,8,8a-tetrahydro-2H-phthalazin-1-one] | 9.00
196 to 198 | COc1ccc(C2=NN(C3CCS(=O)(=O)CC3)C(=O)C3CC=CCC23)cc1OC (stereo not drawn) [compound 2, (cis)-4-(3,4-Dimethoxyphenyl)-2-(1,1-dioxohexahydro-1l^6-thiopyran-4-yl)-4a,5,8,8a-tetrahydro-2H-phthalazin-1-one] | 8.45
– | COc1ccc(C2=NN(C3CC[S+]([O-])CC3)C(=O)C3CC=CCC23)cc1OC (stereo not drawn) [compound 3, (cis)-4-(3,4-Dimethoxyphenyl)-2-(1-oxo-hexahydro-1l^4-thiopyran-4-yl)-4a,5,8,8a-tetrahydro-2H-phthalazin-1-one] | 8.51
